Where two headings read alike, the source gives them in different places.
Assays:
MERS nsp1 = MERS nsp1 (Middle East respiratory syndrome-related coronavirus, UniProt K9N7C7); test: biochemical; type: binding
SARS-CoV-2 nsp1_10-126 [1] = biological target: T1, SARS-CoV-2 nsp1_10-126 (Severe acute respiratory syndrome coronavirus 2, UniProt P0DTD1); test: Thermal shift assay (TSA) by nanoDSF; type: binding; conditions: 4 mM fragment; for TSA effect on unfolding of the protein, in words / TSA Ti ± SD: 2.0% DMSO; for TSA Ti ± SD: nanoDSF, 1.25 mg/mL protein, n = 3, APUC = atypical protein unfolding curve; for TSA ΔTi: Ti (protein-fragment) − Ti (protein-DMSO), control Ti 54.05 °C in 2.0% DMSO; for TSA |ΔTi|-3SD: > 0 regarded as statistically significant
From the text: For TSA, nsp1 in the presence of an equal concentration of DMSO was used as a control to offset the influence of DMSO on the protein. The averaged change of inflection temperature (△Ti) of the protein in the presence of fragments higher than three-fold of standard deviation (|△Ti|-3*SD > 0) was regarded as statistically significant. […] In this regard, TSA may not be suitable yet for the validation of hits against SARS-CoV-2 nsp1_10-126, as we have recently also observed for another SARS-CoV-2 protein, nsp10 [41]. With respect to physicochemical properties, calculated values for fragments are well within the expected range, indicating good starting points for structure-based drug design.
The protein concentration used in this assay was determined by analysing the unfolding curves of SARS-CoV-2 nsp1_10-126 at different concentrations in the presence of 2% DMSO. Fragments dissolved in DMSO (200 mM stocks) were diluted in buffer E supplied with 0.05% Pluronic® F-127 and mixed with nsp1_10-126. The final concentration of fragments was 4 mM containing 2.0% DMSO, while the final protein concentration was 1.25 mg/mL. After centrifugation for 5 min at 6000 rpm, the samples were loaded into Tycho NT.6 capillaries (TY-C001, NanoTemper, München, Germany) with 1.25 mg/mL SARS-CoV-2 nsp1_10-126 in the presence of 2% DMSO as control and measured by the Tycho NT.6 instrument (NanoTemper, München, Germany) in triplicate. The resulting Ti values are presented as means ± SD (n = 3) and the △Ti values for each sample were calculated with the following equation. △Ti = Ti (protein-fragment) − Ti (protein-DMSO)

SARS-CoV-1 nsp1 = SARS-CoV-1 nsp1 (Severe acute respiratory syndrome coronavirus, UniProt P0C6X7); test: biochemical; type: binding
SARS-CoV-2 nsp1_10-126 [2] = biological target: T1, SARS-CoV-2 nsp1_10-126; test: Microscale thermophoresis (MST) binding affinity

Sequence of MERS nsp1 (K9N7C7 2-193 limits assumed): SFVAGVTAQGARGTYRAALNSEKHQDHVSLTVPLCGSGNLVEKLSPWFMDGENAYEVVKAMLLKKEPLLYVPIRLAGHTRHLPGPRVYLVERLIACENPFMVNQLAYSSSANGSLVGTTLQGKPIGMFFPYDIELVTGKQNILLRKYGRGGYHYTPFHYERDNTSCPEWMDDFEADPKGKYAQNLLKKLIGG

## CNCc1ccc(-c2cccs2)cc1 [Fragment 5E11]
MERS nsp1
  Kd: > 20 mM
SARS-CoV-2 nsp1_10-126 [1]
  TSA effect on unfolding of the protein, in words: atypical unfolding curves
  TSA Ti ± SD: APUC
SARS-CoV-1 nsp1
  Kd: 12.8 ± 24.1 mM
SARS-CoV-2 nsp1_10-126 [2]
  Kd: 0.48 ± 0.3 mM

## C[C@H](N)c1ccc(Cl)cc1 [Fragment 7H2]
MERS nsp1
  MERS nsp1 MST, Kd: n.i
SARS-CoV-2 nsp1_10-126 [1]
  TSA effect on unfolding of the protein, in words: Destabilisation effects
  TSA ΔTi: −0.50 °C
  TSA Ti ± SD: 53.55 ± 0.25 °C
SARS-CoV-1 nsp1
  Cross-binding to SARS-CoV-1 nsp1 by MST, in words: no binding
  SARS-CoV-1 nsp1 MST, Kd: n.i.
SARS-CoV-2 nsp1_10-126 [2]
  Kd: > 20 mM
SARS-CoV-2 nsp1_10-126 [2]; read-out: SARS-CoV-2 nsp1 MST, Kd
  Kd: > 20 mM

## OCCNCc1ccccc1 [Fragment 8E6]
MERS nsp1
  Kd: > 20 mM
SARS-CoV-2 nsp1_10-126 [1]
  TSA effect on unfolding of the protein, in words: Destabilisation effects
  TSA |ΔTi|-3SD: 0.67 °C
  TSA ΔTi: −1.33 °C
  TSA Ti ± SD: 52.72 ± 0.22 °C
SARS-CoV-1 nsp1
  Kd: > 20 mM
SARS-CoV-2 nsp1_10-126 [2]
  Kd: 8.32 ± 3.32 mM

## Nc1nc(-c2ccc(O)cc2)cs1 [Fragment 10B6]
MERS nsp1
  Cross-binding to MERS nsp1 by MST, in words: moderate binding affinity
  Kd: 4.92 ± 4.19 mM
SARS-CoV-2 nsp1_10-126 [1]
  TSA effect on unfolding of the protein, in words: Destabilisation effects
  TSA |ΔTi|-3SD: 2.33 °C
  TSA ΔTi: −2.79 °C
  TSA Ti ± SD: 51.27 ± 0.15 °C
SARS-CoV-1 nsp1
  Kd: > 20 mM
SARS-CoV-2 nsp1_10-126 [2]
  Kd: 0.56 ± 0.19 mM

## CNCc1csc(-c2cccc(Cl)c2)n1 [Fragment 11C6]
MERS nsp1
  MERS nsp1 MST, Kd: n.i.
SARS-CoV-2 nsp1_10-126 [1]
  TSA effect on unfolding of the protein, in words: Destabilisation effects
  TSA |ΔTi|-3SD: 0.13 °C
  TSA ΔTi: −0.27 °C
  TSA Ti ± SD: 53.78 ± 0.05 °C
SARS-CoV-1 nsp1
  Cross-binding to SARS-CoV-1 nsp1 by MST, in words: strong cross-binding effects
  Kd: 0.38 ± 0.14 mM
SARS-CoV-2 nsp1_10-126 [2]
  Kd: 1.16 ± 0.22 mM

— article PMC9604401 (International Journal of Molecular Sciences, 2022)
